Measurements as given in patent publication US20210381022A1, “INTEGRATED DRUG DISCOVERY PLATFORM FOR INBORN ERROR OF METABOLISM DISORDERS” (RAMOT AT TEL-AVIV UNIVERSITY LTD., priority 2018, published 2021).

Columns and labels:
[1] = test system: adenosine aggregates in ADA deficient LCLs; test: Aggregation assay (Proteostat, FACS) on ADA deficient LCLs; type: cell-based, human; settings: patient derived lymphoblastoids, adenosine, 19 concentrations from 50 μM to 0.003 μM
Description: 24 hours after seeding in full medium cells were washed with medium without serum and placed in medium without serum. Following 72 hours of incubation with or without Adenosine (A9251 SIGMA) (200 ug/ml), cells were washed with PBS and stained for adenosine aggregates with Proteostat dye (ENZ-51023-KP002). Proteostat concentration was 1:3000 of diluted stock. Following 15 minutes' incubation, cells were washed with PBS and mean fluorescence was measured with FACS.
Cells were treated with adenosine alone or with adenosine with compounds. Compound activity was tested in 19 concentrations in range from 50 uM to 0.003 uM.
Readouts: Proteostat Fluorescence intensity was measured with FACS at 2 excitation wavelengths: 488 nm and 550 nm. Emission wavelength was 600 nm.
24 hours after seeding in 96 round bottom plates in full medium cells were washed once with medium without serum and placed in medium without serum. Following 72 hours of incubation with or without Adenosine (200 ug/ml) and with or without purpurin (2 uM), cells were washed once with PBS and stained for adenosine aggregates with Proteostat dye (Enzo Life Sciences). Proteostat concentration was 1:4000 of diluted stock. Following 15 minutes incubation, cells were washed with PBS and mean flow cytometry was preformed using Stratedigm S1000EXi and the CellCapTure software (Stratedigm, San Jose, Calif.). Analyses were performed using FlowJo software (TreeStar, version 10).
For quantification of intracellular adenosine aggregates by FACS analyses, 100,000 cells were seeded in 96 well plates in full medium. After 24 hours, cells were centrifuged, washed once and added with serum free medium with or without Adenosine (200 μg/ml). After incubation of 72 hours cells were washed with PBS and stained for adenosine aggregates with Proteostat dye. Following 15 minutes incubation, cells were washed with PBS and mean fluorescence was measured with FACS. Mean cell fluorescence of every cell line was normalized to its signal without adenosine and data is presented as percentage of aggregates.

[2] = test system: GABAA receptor; settings: general description; cited from earlier work
[3] = test system: adenine fibrils; test: ThT assay of adenine self-assembly inhibition in vitro; settings: for amyloids staining (ThT, end point): adenine 8 mg/ml in PBS with inhibitor
Description: Adenine was dissolved at 90° C. in PBS to a final concentration of 8 mg/ml and mixed with the indicated inhibitor, at the indicated concentrations, or with PBS as a control, followed by addition of ThT in PBS. ThT emission data at 480 nm (excitation at 450 nm) were measured at the end point.
Adenine was dissolved to a final concentration of 8 mg/ml at 90° C. in PBS. The solution was plated on a 96-well black plate and mixed with the inhibitor baicalein at the stated concentration, and with 20 μm ThT (final concentration). Fluorescence (excitation at 450 nm, emission at 480 nm) was recorded over time using a Tecan™ Infinite® 200 PRO plate reader. Data processing was performed using the OriginLab software.
To further examine if the compounds specifically target the adenosine amyloid-like structures. the compounds were tested using adenine in-vitro aggregation assay. Adenine was self-assembled with and without the inhibitors and stained with the amyloids dye, Thioflavin T (ThT). […] More specifically. Adenosine (30 mg/mL) and guanosine (3 mg/ml) were dissolved in PBS at 90° C., followed by the addition of ThT at final concentration of 20 μM. ThT emission data at 480 nm (excitation at 450 nm) was measured over time. TEM images show elongated adenosine fibrils (10 mg/mL) and guanosine fibrils (1 mg/mL) (FIGS. 34A and 34B, respectively). ThT fluorescence assay of adenosine and guanosine assemblies, are shown by FIGS. 34C, and 34D respectively.

[4] = test system: aro3Δ mutant; test: Yeast growth assay of aro3Δ mutant with tyrosine feeding; type: cell-based, Saccharomyces cerevisiae; settings: 4a.a SD medium with tyrosine
Description: (§1) Strains were grown over night at 30° C. in SD medium without adenine. For spotting assays, strains were diluted to 6.25*10^7 cells/mL and were then 5-fold serially diluted and spotted on SD media with the indicated concentrations of adenine or TA (Sigma-Aldrich). Plates were incubated at 30° C. for 2 days. […] For OD600 measurements, strains were diluted to OD600 0.01, 200 μL of cells were platted on 96 wells plates and incubated at 30° C. for 25 hours with continuous shaking. OD600 was measured using Tecan™ SPARK 10M plate reader.
The focus was put on a strain with a deletion of the ARO3 gene in which a significant decrease in cellular growth was observed upon tyrosine feeding (see FIG. 21). The inventors aimed to determine whether the toxic effect was influenced by different levels of tyrosine. Thus, the cellular growth of wild-type and the aro3Δ mutant was examined by serial dilutions on selective plates that were supplemented with different concentrations of tyrosine (FIG. 21A). In addition, cellular growth was also examined by measuring the turbidity of the medium upon addition of the indicated concentration of tyrosine (FIG. 21B). […] Thus, cell growth is affected by tyrosine levels in a dose-dependent manner which further supports the notion that the toxicity in the aro3Δ mutant results from the presence of tyrosine.
In order to examine the effect of EGCG on cell growth, the aro3Δ mutant was spotted on 4a.a SD plates that contained tyrosine alone or tyrosine with different concentrations of EGCG. […] Thus, the lag phase in the presence of EGCG was nearly the same as cells unexposed to tyrosine, indicating the potent ability of EGCG to eliminate the tyrosine sensitivity of the aro3Δ mutant. […] Next, the inventors aimed to gain additional insights into the effect of EGCG on the amyloid-like fibrils formed by the accumulation of tyrosine in the aro3Δ mutant cells. For that purpose, cells were stained with the amyloid-specific dye ProteoStat®, and FACS was applied to detect tyrosine aggregates. […] (FIG. 25).

[5] = test system: fah-1 RNAi treated worms; test: C. elegans model for Tyrosinemia (fah-1 RNAi); type: in vivo, Caenorhabditis elegans; settings: tyrosine added to fah-1 silenced worms
Description: (§2) Wild-type N2, RB857 and NL2099 worms were obtained from the Caenorhabditis Genetics Center. RNAi clones was obtained from the Ahringer RNAi library as previously described [Fisher A L, et al., J. Biol. Chem. 283: 9127-9135(2008)]. Worms were grown on NGM media without peptone and the metabolites were added into a boiling media. Baicalein and EGCG were added to a media after cooled down to 45 degrees.
Mutations in different enzymes that are involved in the tyrosine degradation pathway are responsible for different types of Tyrosinemia. The tyrosine degradation pathway in mammals and C. elegans in conserved and the most severe is type I Tyrosinemia, which is caused by mutations affecting the last enzyme in the pathway, fumarylacetoacetate hydrolase (FAH). To study Tyrosinemia in C. elegans model, an RNAi was used that specifically silences the fumarylacetoacetate hydrolase (fah-1), as was previously reported (K10C4.2). RNAi directed against fah-1 causes severe phenotype of reduced size, impaired fertility and reduction of total number of viable worms (FIG. 32).

[6] = test system: cys4Δ strain; test: Yeast growth assay of cys4Δ mutant with homocysteine; type: cell-based, Saccharomyces cerevisiae; settings: compared to the wild-type strain, 20, 40, 80 mg/L
Description: FIG. 27E: WT and cys4Δ strains diluted to OD600 0.01 were grown in SD media containing 13 mg/L cysteine and 80 mg/L homocysteine in the under the indicated conditions. 0.3 mM TA was added to the samples at different OD600. The percentage of growth represents the growth the indicated condition compared to the growth of WT without TA. *P<0.05 (Student's t-test).
Homocystinuria results from cystathionine beta synthase (CBS) deficiency, leading to excess of Hcy. A knockout mutation in CYS4, the highly-conserved functional yeast ortholog of the human cystathionine beta synthase (CBS) known to be essential for Hcy salvage, was therefore generated. Due to the contribution of this enzyme to cysteine biosynthesis, it was first shown that its absence confers cysteine dependence (FIG. 27A). […] To examine whether the observed toxicity was associated with the in vivo formation of amyloid-like assemblies, the cells were stained with the amyloid-specific fluorescent dye ProteoStat which allows to detect intracellular amyloid fibrils. […] Next, to further establish the amyloid-like nature of the aggregates, the fibrillation-modifying polyphenolic compound tannic acid (TA) was used (FIG. 27E).

[7] = test system: aah1Δapt1Δ strain; test: Yeast growth assay of adenine salvage mutant with adenine feeding; type: cell-based, Saccharomyces cerevisiae
Description: as §1
For the percentage of growth analysis (FIG. 10B and FIG. 13A), OD600 was measured when cells reached log phase. The percentage of growth represents the growth with TA compared to the growth without TA.

[8] = test system: phenylalanine assemblies; settings: reference [4]; cited from earlier work
[9] = test system: RB857 (PAH-1 mutant) and N2 (WT) worms; test: C. elegans model for PKU; type: in vivo, Caenorhabditis elegans; settings: 100 mM phenylalanine in minimal media, Baicalein added
Description: as §2
To study PKU in C. elegans model, a strain was used with mutation in the PAH-1 gene (RB857)]. […] Next, the effect of one of the previously identified hits i.e. baicalein was examined on the development of worms. The life cycle of C. elegans is comprised of the embryonic stage, four larval stages (L1-L4) and adulthood. The end of each larval stage is marked with a molt, during which a new, stage-specific cuticle is synthesized and the old one is shed.

[10] = target: estrogen receptor (Homo sapiens, UniProt P03372); settings: general description; cited from earlier work
[11] = test system: lipoxygenases; settings: general description; cited from earlier work
[12] = target: CYP2C9 (Homo sapiens, UniProt P11712); settings: general description; cited from earlier work
Chain of CYP2C9 (P11712 whole entry): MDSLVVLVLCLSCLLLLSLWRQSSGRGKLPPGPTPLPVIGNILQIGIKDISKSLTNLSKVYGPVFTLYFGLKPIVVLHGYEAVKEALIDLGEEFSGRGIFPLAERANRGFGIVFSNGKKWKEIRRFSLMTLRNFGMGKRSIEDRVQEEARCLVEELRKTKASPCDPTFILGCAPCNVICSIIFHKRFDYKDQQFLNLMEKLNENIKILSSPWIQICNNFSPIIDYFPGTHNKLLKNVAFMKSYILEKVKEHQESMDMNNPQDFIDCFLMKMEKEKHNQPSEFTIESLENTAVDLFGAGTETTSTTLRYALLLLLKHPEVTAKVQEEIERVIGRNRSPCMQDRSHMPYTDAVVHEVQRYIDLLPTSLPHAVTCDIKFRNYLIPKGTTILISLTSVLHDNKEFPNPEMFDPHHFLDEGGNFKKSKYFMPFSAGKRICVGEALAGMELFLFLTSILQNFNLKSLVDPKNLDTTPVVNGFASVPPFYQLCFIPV

Chain of estrogen receptor (P03372 whole entry, species assumed): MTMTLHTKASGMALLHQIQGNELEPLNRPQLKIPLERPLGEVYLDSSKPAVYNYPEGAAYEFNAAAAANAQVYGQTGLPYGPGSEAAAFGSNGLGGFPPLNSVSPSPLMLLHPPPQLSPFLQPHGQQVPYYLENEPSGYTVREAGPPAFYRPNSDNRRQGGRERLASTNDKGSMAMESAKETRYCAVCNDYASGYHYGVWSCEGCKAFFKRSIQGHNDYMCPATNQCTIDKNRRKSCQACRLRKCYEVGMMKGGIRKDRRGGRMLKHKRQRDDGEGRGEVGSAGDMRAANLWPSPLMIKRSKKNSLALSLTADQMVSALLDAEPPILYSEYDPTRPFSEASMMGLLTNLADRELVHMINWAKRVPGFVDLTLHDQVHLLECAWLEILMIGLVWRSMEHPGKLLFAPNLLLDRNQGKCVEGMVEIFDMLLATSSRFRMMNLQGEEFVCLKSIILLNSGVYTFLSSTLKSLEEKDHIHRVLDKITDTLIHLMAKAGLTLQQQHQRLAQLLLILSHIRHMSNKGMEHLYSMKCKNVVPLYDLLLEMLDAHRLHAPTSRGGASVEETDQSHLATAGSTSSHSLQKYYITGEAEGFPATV

With `O=C1c2ccccc2C(=O)c2c1ccc(O)c2O` [Alizarin, 1,2-Dihydroxyanthracene-9,10-dione] the “formation of adenosine aggregates (aggregation level, Proteostat staining)” value (shortened to “formation of adenosine aggregates”) [1] was “significantly reduce the aggregation level” and the “formation of adenosine aggregates” value ([1]; listed as alizarin) was “inhibited the formation of these aggregates”.
In the case of `O=C(O)[C@H]1O[C@@H](Oc2cc3oc(-c4ccccc4)cc(=O)c3c(O)c2O)[C@H](O)[C@@H](O)[C@@H]1O` [baicalin, reference compound], the “modulation of the benzodiazepine site and/or a non-benzodiazepine site of the GABAA receptor” value [2] is given as “positive allosteric modulator”.
For `O=C1c2ccc(O)c(O)c2C(=O)c2c(O)ccc(O)c21` [Quinalizarin, 1,2,5,8-Tetrahydroxyanthracene-9,10-dione], the “amyloids staining (ThT, end point)” value [3] was “significantly reduced the amyloids staining”, the “formation of adenosine aggregates” value [1] was “significantly reduce the aggregation level” and the “formation of adenosine aggregates” value ([1]; listed as quinalizarin) was “inhibited the formation of these aggregates”.
For `N[C@@H](Cc1ccc(O)cc1)C(=O)O` [tyrosine], the “growth of aro3Δ mutant with increasing tyrosine concentration” value [4] was “increase of growth inhibition” and the “size, fertility and total number of viable worms” value [5] was “severe decline in all the observed phenotypes”.
For `N[C@@H](CCS)C(=O)O` [Hcy, homocysteine], the “growth of CYS4 mutant with Hcy in the growth medium” value [6] was “sensitivity”.
With `Nc1ncnc2nc[nH]c12` [adenine, Adenine] the “cell growth with increasing adenine levels in the medium” value ([7]; SD medium, adenine up to 40 mg/L) was “decreased cell growth in a dose-dependent manner”.
For `C[C@H]1c2cccc(O)c2C(=O)C2=C(O)[C@]3(O)C(=O)C(C(N)=O)=C(O)[C@@H](N(C)C)[C@@H]3[C@@H](O)[C@@H]21` [doxycycline], the “phenylalanine aggregation and cytotoxicity of the assemblies in vitro” value [8] is given as “counteract”.
For `O=c1cc(-c2ccccc2)oc2cc(O)c(O)c(O)c12` [Baicalein, 5,6,7-Trihydroxy-2-phenyl-chromen-4-one], the yeast cell growth ([7]; 2 mg/L adenine, baicalein 2.5, 5, 10 μM) was “significant effect on yeast cell growth”, the “adenine self-assembly in vitro (ThT fluorescence over time)” value ([3]; 8 mg/ml adenine, baicalein 5, 10, 100, 500 μM) was “dose-dependent inhibition of adenine self-assembly in vitro” and the “amyloids staining (ThT, end point)” value [3] was “significantly reduced the amyloids staining”. The “formation of adenosine aggregates” value [1] was “significantly reduce the aggregation level”, the “formation of adenosine aggregates” value ([1]; listed as baicalein) was “inhibited the formation of these aggregates” and the “total number of worms” value ([9]; N2 and RB857) was “beneficial effect on both strains”. The “development of worms (reaching adulthood)” value ([9]; RB857 and WT) was “dramatic beneficial effect on both strains”, the “modulation of the benzodiazepine site and/or a non-benzodiazepine site of the GABAA receptor” value [2] was “positive allosteric modulator” and the “activity at the estrogen receptor” value [10] was “antagonist”. For the same molecule, the “inhibition of certain types of lipoxygenases” value [11] was “inhibit” and the “inhibition of CYP2C9” value [12] was “inhibitor”.
